Measurements as given in patent US11092610B2, “Biomarker SBP1 for early diagnosis of kidney diseases, and use thereof” (CELLGENTEK CO., LTD., priority 2016, dated 2021).

What was measured:
[1] = test system: rat; experiment: Hepatotoxicity model (carbon tetrachloride), liver findings and urinary SBP1; type: in vivo
Description: (§1) The extracted proteins were dissolved, and transferred to a nitrocellulose membrane. Here, methanol was added to a transfer buffer, and the reaction was performed at 80 V for 1 hour. After the proteins were transferred, the membrane was stained with Ponceau S (within 10 seconds to 1 minute, slightly stained to see a band), and sufficiently washed with DW or PBS for blocking. Here, a blocking buffer was used by dissolving 3 to 5% bovine serum albumin (BSA) in a solution in which TWEEN™ 20 was contained in Tris-buffered saline (TBS). A primary antibody was reacted at 4° C. overnight, rinsed with a wash buffer (surfactant-containing TBS or PBS) to remove unbinding primary antibodies, and then secondary antibodies were reacted. After the secondary antibodies were reacted, unbinding secondary antibodies were rinsed with a washing buffer, and a band was identified using luminol.
To confirm whether urinary SBP1 is released in a hepatotoxicity model, a hepatotoxic material such as carbon tetrachloride (CCl4) was administered to a rat to induce hepatotoxicity, and then SBP1 level in urine was measured.

[2] = test system: Sprague-Dawley rat; experiment: Diabetic animal model induced by STZ administration (blood glucose, urine and renal failure markers); type: in vivo
Description: To verify a diabetic animal model induced by STZ administration according to Example 1-1 of the present invention, an experiment was carried out by designing the experimental model as described in FIG. 1A.
However, in an experimental group in which diabetic animals are treated with an antidiabetic drug, it was confirmed that a blood glucose level was decreased gradually on Day 7, Day 14 and Day 21, and decreased to almost the normal level on the last day, Day 28.
Then, it was confirmed whether renal failure occurs in a diabetic animal model induced by STZ administration. […] It can be seen that, in the anti-diabetic drug-administered group, the BUN and creatinine levels are decreased to a normal range.

[3] = test system: SD rats; experiment: Drug (cisplatin)-induced renal failure animal model; type: in vivo, rat; settings: 10 mg/kg I.P.
Description: On Day 1, Day 3 and Day 5 after the injection, protein contents in urine obtained for 24 hours were measured in rats of the cisplatin-administered experimental group and the untreated control.
as §1
A supernatant was obtained by centrifuging each urine sample at 3000 g for 15 minutes, and stored in a freezer at −80° C. Following the urine collection, experimental animals were anesthetized with carbon dioxide to collect blood from the abdominal aorta, and after natural death due to bleeding, the kidneys and liver were extracted. A supernatant was obtained by centrifuging each blood sample at 1500 g for 15 minutes, and stored in a freezer at −80° C. The obtained urine and blood samples were subjected to detection of conventional markers using a test kit corresponding to each parameter.

[4] = after administration of hepatotoxic material
[5] = one day after administration, then decreased
[6] = STZ 50 mg/kg single dose I.P., rat

ClC(Cl)(Cl)Cl [carbon tetrachloride]
BUN [1, 4]: no changes | SBP1 in urine (western blotting) [1, 4]: not detected | creatinine [1, 4]: no changes | ALT level compared with the control [1, 5]: increased | AST level compared with the control [1, 5]: increased | hepatotoxicity, liver histopathology (H&E staining) ([1]; rat liver, from one day after administration): severe liver failure was observed

CN(N=O)C(=O)N[C@@H](C=O)[C@@H](O)[C@H](O)[C@H](O)CO [STZ, streptozocin]
blood glucose level [2, 6]: ≥ 600 mg/dL | blood glucose level, increase compared to the control [2, 6]: ≥ 6 fold | BUN, increase compared to the control ([2]; STZ-administered group, rat): ≥ 2 fold | creatinine, increase compared to the control ([2]; STZ-administered group, rat): ≥ 2 fold | microalbumin in urine, increase compared to the control ([2]; STZ-administered group, rat): ≥ 10 fold | urine volume, increase compared to the control ([2]; diabetic animal induced by STZ administration): ≥ 3 fold

N.N.[Cl][Pt][Cl] [cisplatin]
BUN compared with the control ([3]; Day 1): no significant differences | kidney tissue damage (histology) ([3]; Day 1): mildly damaged | serum creatinine compared with the control ([3]; Day 1): no significant differences | urinary SBP1 level (western blotting) ([3]; Day 1): increased | BUN compared with the control ([3]; Day 3): significantly increased | serum creatinine compared with the control ([3]; Day 3): significantly increased | urinary SBP1 level compared with the control ([3]; Day 3): highly increased | BUN, increase compared with the control ([3]; Day 5): 3 to 5 fold | kidney tissue damage (histology) ([3]; Day 5): most tubules were severely damaged | serum creatinine, increase compared with the control ([3]; Day 5): 3 to 5 fold | urinary SBP1 level (western blotting) ([3]; Day 5): detected at a very high level
